Source: paper PMC9697446 (International Journal of Molecular Sciences, 2022)

Assays:
[1] = target: T1, tubulin (Sus scrofa, UniProt P02550+P02554); assay: Tubulin polymerization (microtubule assembly); format: biochemical; conditions: for Increase in the rate of tubulin polymerization: 100 µM; for Tubulin polymerization rate, % of control at 100 µM: read-out: Tubulin polymerization rate (dA355/dt), % Control
T1 construct: purchased Cytoskeleton, Inc. HTS-Tubulin polymerization assay kit
Experimental: The assembly of tubulin into microtubules was carried out using pure tubulin from an HTS-Tubulin polymerization assay kit (Cytoskeleton, Inc., Denver, CO, USA). A standard polymerization reaction used 100 μL of 4 mg/mL tubulin in 80 mM PIPES (pH 6.9), 0.5 mM EGTA, 2 mM MgCl2, and 1 mM GTP. Polymerization was monitored by recording the change in absorbance on a Wallac Victor 3 1420 Multilabel Counter (Perkin Elmer, Turku, Finland) at λ = 3 55 nm. Electron microscopic monitoring was carried out with a Carl Zeiss Libra 120 electron microscope (Carl Zeiss Meditec AG, Jena, Germany) at 120 kV using negative contrasting.

[2] = tested on: isolated rat liver mitochondria; assay: Mitochondrial membrane potential and calcium-induced depolarization (safranine O); format: biochemical; conditions: complex I inhibitor rotenone and a substrate of RC complex II
[3] = cited from earlier work
[4] = target: T2, NMDA receptor intrachannel site ([3H]MK-801) (Rattus norvegicus, UniProt P35439); assay: Radioligand binding, [3H]MK-801 site of the NMDA receptor
T2 construct: from tissue; host or cells: rat brain membranes
Experimental: (§1) The experiments were carried out using a rat brain membrane fraction.
(§2) The effect of test compounds on the radioligand binding to NMDA receptors was determined as previously described. Two radioactive ligands were used: [^3H] […] A pellet of rat brain membrane specimen was resuspended in a working buffer (5 mM HEPES/4.5 mM Tris buffer, pH 7.6) in a ratio of 1:5 and stored in liquid nitrogen. The reaction mixture (with a final volume of 0.5 mL) contained 200 µL of the working buffer, 50 µL of 50 nM radioligand solution, and 250 µL of the membrane suspension. Nonspecific binding was determined in the presence of 50 µL of […] of unlabeled ligand.
(§3) For the binding study, the reaction mixture was incubated at room temperature for 2 h. After incubation, the samples were filtered through GF/B glass-fiber filters (Whatman), washed with the working buffer, dried, and transferred to scintillation vials, and then 5 mL of scintillation fluid was added to the vials containing 4 g of diphenyloxazole (PPO), 0.2 g of diphenyloxazoil benzene (POPOP), and 1 L of toluene.
(§4) The effect of the test compounds on the binding of [^3H]

[5] = target: T3, NMDA receptor peripheral site ([3H]ifenprodil) (Rattus norvegicus, UniProt P35439+Q00960); assay: Radioligand binding, [3H]ifenprodil site of the NMDA receptor
T3 construct: from tissue; host or cells: rat brain membranes
Experimental: as §1, §2, §3, §4

[6] = tested on: isolated rat liver mitochondria; assay: Oxygen consumption rate of mitochondria (Seahorse flux analyzer); format: biochemical; conditions: nanomolar concentrations; complex I substrates (glutamate and malate) and in the presence of rotenone
Experimental: Meanwhile, compound 4i can stimulate respiration of isolated rat liver mitochondria, which was estimated using an XFe96 Seahorse extracellular flux analyzer (Figure 5).
Analysis was based on the fluorometric determination of O2 and H^+ levels with solid-state probes on a sensor cartridge. The oxygen consumption rate (OCR) was measured successively in the presence of RC substrates and then after the addition of ADP (phosphorylating respiration), ATP synthase F^o-subunit inhibitor oligomycin (proton leak), oxidative phosphorylation uncoupler FCCP (maximal respiration), and the corresponding inhibitors of respiration chain complexes (non-mitochondrial respiration) (Figure 5a).
The oxygen consumption was measured using a Seahorse XF96 flux analyzer on mitochondria respiring on glutamate (5 mM) and malate (5 mM), according the same protocol as with a correction to a 96-well instead of a 24-well plate. Respiration by rat liver mitochondria (5 µg/well) was sequentially measured in a coupled state with substrates of complex I (basal respiration); followed by phosphorylating respiration after the addition of ADP; non-phosphorylating or resting respiration induced with the addition of oligomycin; uncoupled respiration stimulated by the addition of FCCP; and finally, non-mitochondrial respiration after the addition of the inhibitor of complex I rotenone.

[7] = tested on: primary culture of rat cerebellar granule cells (CGC); assay: Ionomycin-induced toxicity in cerebellar granule cells, MTT assay; format: cell-based; conditions: ionomycin 3 µM
Experimental: (§5) This neurotoxicity model reflects the calcium stress involved with several types of insults, such as amyloid toxicity, excitotoxicity, and ischemic damage. The viability of the primary culture of rat cerebellar granule cells (CGC) and brain cortical neurons (BCN) was assessed by the MTT assay in the presence of various concentrations of compound 4i.
(§6) Cerebellar granule cells (CGC) and brain cortical neurons (BCN) were isolated from P-7 or P0-2 rat’s pups, respectively, using a previously described protocol. Once removed, cerebella or brain cortex were digested for 15 min in 0.025% type II trypsin (w/v) at 37 °C. Ice-cold DMEM containing 5% (w/v) fetal bovine serum was added to inactivate the trypsin. […] After 8-10 day in culture the cells were incubated with a test compound or an equal volume of the DMSO (<1% (v/v) of the whole volume of the medium under the layer of cells and 3 µM ionomycin for 24 h. The cell viability was then evaluated as the dehydrogenase activity with the 3-(4,5-dimethylthiazol-2-yl)-2,5-diphenyltetrazolium bromide (MTT) assay. The absorbance was measured at 570 nm using a Victor microplate reader (Perkin Elmer), and data were normalized with intact control assumed 100%.

[8] = tested on: rat brain cortical neurons (BCN); assay: Ionomycin-induced toxicity in brain cortical neurons, MTT assay; format: cell-based; conditions: ionomycin 1 µM
Experimental: as §5
Cerebellar granule cells (CGC) and brain cortical neurons (BCN) were isolated from P-7 or P0-2 rat’s pups, respectively, using a previously described protocol. Once removed, cerebella or brain cortex were digested for 15 min in 0.025% type II trypsin (w/v) at 37 °C. Ice-cold DMEM containing 5% (w/v) fetal bovine serum was added to inactivate the trypsin. The crude cell suspension was centrifuged, and the cell pellet was resuspended in Neurobasal with 2% (v/v) B27 supplemented with 15% (v/v) fetal bovine serum (FBS), 100 U/mL penicillin, and […] streptomycin. The cells were cultured in a humidified, 5% (v/v) CO2-controlled environment at 37 °C. […] The cell viability was then evaluated as the dehydrogenase activity with the 3-(4,5-dimethylthiazol-2-yl)-2,5-diphenyltetrazolium bromide (MTT) assay. The absorbance was measured at 570 nm using a Victor microplate reader (Perkin Elmer), and data were normalized with intact control assumed 100%.

[9] = tested on: rat cerebellar granule cells (CGC) and brain cortical neurons (BCN); assay: Viability of CGC and BCN with the compound alone, MTT assay; format: cell-based; conditions: various concentrations
Experimental: as §5, §6

[10] = 100 µM compound, means ± SEM (n = 6)

T1 sequence (P02550 whole entry): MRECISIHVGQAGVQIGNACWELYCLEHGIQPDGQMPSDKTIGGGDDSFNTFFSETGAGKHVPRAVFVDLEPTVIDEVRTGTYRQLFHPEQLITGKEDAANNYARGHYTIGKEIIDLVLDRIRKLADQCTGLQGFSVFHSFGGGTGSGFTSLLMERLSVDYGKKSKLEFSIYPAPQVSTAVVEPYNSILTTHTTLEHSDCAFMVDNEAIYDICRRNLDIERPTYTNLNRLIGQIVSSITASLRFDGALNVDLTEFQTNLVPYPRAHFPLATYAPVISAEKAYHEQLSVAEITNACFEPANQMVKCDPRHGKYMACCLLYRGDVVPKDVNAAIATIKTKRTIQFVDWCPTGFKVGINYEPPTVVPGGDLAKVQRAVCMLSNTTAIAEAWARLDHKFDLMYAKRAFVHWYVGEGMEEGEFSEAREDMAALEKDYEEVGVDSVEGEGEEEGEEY
T1 sequence (P02554 whole entry): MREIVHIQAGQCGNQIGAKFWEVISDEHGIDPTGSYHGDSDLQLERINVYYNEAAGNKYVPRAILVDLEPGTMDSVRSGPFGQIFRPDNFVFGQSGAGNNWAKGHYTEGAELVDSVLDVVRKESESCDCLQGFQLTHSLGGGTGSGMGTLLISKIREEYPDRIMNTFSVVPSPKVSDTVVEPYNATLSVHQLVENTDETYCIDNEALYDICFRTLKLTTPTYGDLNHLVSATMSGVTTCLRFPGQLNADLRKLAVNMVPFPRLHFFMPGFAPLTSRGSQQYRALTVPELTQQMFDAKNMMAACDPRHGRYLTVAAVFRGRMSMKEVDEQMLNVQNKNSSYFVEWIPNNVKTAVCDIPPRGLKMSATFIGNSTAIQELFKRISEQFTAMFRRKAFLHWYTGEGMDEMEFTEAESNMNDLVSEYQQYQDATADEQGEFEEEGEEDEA
T3 sequence (Q00960 27-1482, other chains not shown): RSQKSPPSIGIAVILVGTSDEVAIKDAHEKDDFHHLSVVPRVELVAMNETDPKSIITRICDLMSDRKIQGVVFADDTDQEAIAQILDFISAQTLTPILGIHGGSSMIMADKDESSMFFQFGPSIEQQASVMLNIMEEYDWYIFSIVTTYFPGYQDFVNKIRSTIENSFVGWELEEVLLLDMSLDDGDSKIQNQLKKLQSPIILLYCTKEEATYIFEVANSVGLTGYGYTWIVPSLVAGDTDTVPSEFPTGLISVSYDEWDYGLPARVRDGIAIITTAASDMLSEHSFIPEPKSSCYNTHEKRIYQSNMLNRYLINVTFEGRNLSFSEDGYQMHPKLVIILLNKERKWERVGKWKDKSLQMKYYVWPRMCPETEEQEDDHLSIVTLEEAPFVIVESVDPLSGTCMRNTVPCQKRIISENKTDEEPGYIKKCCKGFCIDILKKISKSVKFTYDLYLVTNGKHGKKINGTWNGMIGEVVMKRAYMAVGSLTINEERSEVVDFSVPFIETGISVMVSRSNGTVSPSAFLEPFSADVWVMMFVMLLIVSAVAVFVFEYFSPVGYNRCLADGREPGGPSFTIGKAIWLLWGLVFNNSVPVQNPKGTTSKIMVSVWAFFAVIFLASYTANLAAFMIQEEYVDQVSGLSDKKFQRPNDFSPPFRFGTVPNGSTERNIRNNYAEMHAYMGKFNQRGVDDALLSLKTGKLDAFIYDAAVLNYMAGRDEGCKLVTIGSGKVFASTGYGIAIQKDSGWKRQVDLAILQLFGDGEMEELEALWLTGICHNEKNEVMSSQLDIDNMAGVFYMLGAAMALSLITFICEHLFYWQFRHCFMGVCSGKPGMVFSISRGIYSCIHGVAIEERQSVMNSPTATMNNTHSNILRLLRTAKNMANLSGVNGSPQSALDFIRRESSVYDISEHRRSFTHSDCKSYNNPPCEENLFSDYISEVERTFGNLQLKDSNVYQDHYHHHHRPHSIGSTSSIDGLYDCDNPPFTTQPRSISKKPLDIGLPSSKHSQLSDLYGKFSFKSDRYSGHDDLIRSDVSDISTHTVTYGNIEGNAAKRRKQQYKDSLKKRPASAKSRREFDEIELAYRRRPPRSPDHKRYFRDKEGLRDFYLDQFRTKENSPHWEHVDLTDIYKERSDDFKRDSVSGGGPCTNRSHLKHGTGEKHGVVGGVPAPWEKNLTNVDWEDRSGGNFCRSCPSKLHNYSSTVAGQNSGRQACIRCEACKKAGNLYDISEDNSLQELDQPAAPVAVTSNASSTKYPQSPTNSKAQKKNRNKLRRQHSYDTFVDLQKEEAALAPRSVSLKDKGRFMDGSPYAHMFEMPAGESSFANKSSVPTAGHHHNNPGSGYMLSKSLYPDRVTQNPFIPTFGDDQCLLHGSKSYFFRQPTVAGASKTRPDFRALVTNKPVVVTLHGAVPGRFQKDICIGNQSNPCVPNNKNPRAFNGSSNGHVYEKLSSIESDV

Structure (SMILES)	Structure of microtubules formed (electron microscopy) [1]	Increase in the rate of tubulin polymerization [1]	Tubulin polymerization rate, % of control at 100 µM [1, 10]	Effect on mitochondrial membrane potential at 1 μM, rotenone and complex II substrate [2]	IC50 [4]	IC50 [5]	other results
CN(C)c1ccc2nc3ccc(=[N+](C)C)cc-3sc2c1 [MB, Methylene blue, reference compound]	straight, long microtubules with a normal structure	more than 1.5 fold	168 ± 17%	induced mitochondrial depolarization			Redox potential [3]: 11 mV
CN(C)c1ccc2c(c1)Sc1cc(N(C)C)ccc1N2C(=O)CCn1c2c(c3cc(OC(F)(F)F)ccc31)CCCC2 [Compound 4h]	straight, long microtubules with a normal structure		179 ± 27%		116 ± 10.1 µM	61.3 ± 6.5 µM	
CN(C)c1ccc2c(c1)Sc1cc(N(C)C)ccc1N2C(=O)CCn1c2c(c3ccccc31)CCCCCC2 [Compound 4m]				induced mitochondrial depolarization			
CN(C)c1ccc2c(c1)Sc1cc(N(C)C)ccc1N2 [MBH2, reference compound]		more than 1.5 fold					Tubulin polymerization rate (dA355/dt), % Control [1, 10]: 178 ± 11 % Control
CC1CCc2c(c3cc(OC(F)(F)F)ccc3n2CCC(=O)N2c3ccc(N(C)C)cc3Sc3cc(N(C)C)ccc32)C1 (centres unmarked) [Compound 4i]	straight, long microtubules with a normal structure		207 ± 5%		101 ± 9.2 µM	10.4 ± 1.2 µM	Phosphorylating respiration and maximal respiration (OCR) [6]: statistically significant increase; Protection from ionomycin-induced toxicity, CGC [7]: statistically significant protection; Protection from ionomycin-induced toxicity, BCN [8]: statistically significant protection; Effect on formazan formation in the MTT assay (toxicity to cells) [9]: did not affect formazan formation
